The nature of series [1]: Pharmacokinetics of zhangnan-5 in mice. Format: in vivo. The note with it: both sexes, BlebC, mouse, oral, 100 mg/kg single dose, plasma, average +/− standard deviation. As to the method: (5) Pharmacokinetics research of the compound zhangnan-5 in mice body: (see Singh S S, Shah H, Gupta S, Jain M, Sharma K, Thakkar P, Shah R. Liquid chromatography—electrospray ionisation mass spectrometry method for the determination of escitalopram in human plasma and its application in bioequivalence study. J Chromatogr B Analyt Technol Biomed Life Sci. 2004 Nov. 25; 811 (2):209-15).
Four 8-week old BlebC mice (two male and two female) are used, feeding with the compound zhangnan-5 of 100 mg/kg for single dose. At 0.5, 1, 3, 6, 12, 24, 48, and 72 hours upon mouth feeding the drug, blood is collected via vena ophthalmica and blood plasma is made, to determine the plasma concentration of the given compound zhangnan-5.

The test system of series [2] is human colon cancer cell HCT-116. Nature of the series: Human tumor xenograft model in nude mice. Format: in vivo, nude mice (nu/nu). The note with it: HCT-116 xenograft, 30 mg/kg oral, 5 times a week for 3 weeks, end point 4 weeks; low = active. The source says: (§1) (7) Drug administration of human tumor xenograft model and nude mice tumor transplantation model: (see Harrison S D Jr; Growth of human tumor cells in athymic mice; J Natl Cancer Inst. 1991 Oct. 16; 83 (20): 1509).
(§2) T cell deficiency nude mice (nu/nu) (male, 6-week old) are bought from Charles River Lab, and are raised in pathogen-free environment according to guidelines of animal raising and using committee of university. The number of […] LNCaP, NCI-H23, HCT-116, G-361 and U-251 cells are suspended in 0.2 ml HBSS or matrigel (50: 50, v/v), and are subcutaneously vaccinated to the side abdomen region of the mice. When the average diameters of the tumors are 7˜8 mm, the mice having tumor size of 100˜200 mm3 are chosen, and are given with treatment group of compound zhangnan-5 prepared with corn oil and are only given with control group of empty carrier (corn oil), respectively.
(§3) In the oral feeding test, the compound zhangnan-5 (30 mg/kg) is dissolved in corn oil. Each day the mice are tube fed with 200 μl drug liquid in single dose (prepared with corn oil, containing 0.75 mg compound zhangnan-5) for 5 times a week and for 3 weeks. The control group is given placebo (corn oil) according to same method. The mice are raised separately, and are allowed to self-help feeding.
(§4) The tumor is measured in two vertical directions every 3˜4 days.
(In general: A xenograft is tissue or cells of one species grown in another, often human tumour cells in immunodeficient mice.)

The test system of series [3] is human lung cancer cell NCI-H23. As to the kind of experiment: Human tumor xenograft model in nude mice. Format: in vivo, nude mice (nu/nu). The note with it: 30 mg/kg oral, 5 times a week for 3 weeks, end point 4 weeks, low = active.
Source text: as §1, §2, §3, §4

For series [4], the system named is human malignant glioma cell U-251. As to the kind of experiment: Human tumor xenograft model in nude mice. In kind it is in vivo, nude mice (nu/nu). The note with it: U-251 xenograft, 30 mg/kg oral, 5 times a week for 3 weeks, end point 4 weeks; low = active.
Source text: as §1, §2, §3, §4

Series [5] concerns human melanoma cell G-361. Nature of the series: Human tumor xenograft model in nude mice. In kind it is in vivo, nude mice (nu/nu). The note with it: G-361 xenograft, 30 mg/kg oral, 5 times a week for 3 weeks, end point 4 weeks; low = active.
Source text: as §1, §2, §3, §4

Series [6] relates to human prostate cancer cell LnCAP. Nature of the series: Human tumor xenograft model in nude mice. In kind it is in vivo, nude mice (nu/nu). The note with it: 30 mg/kg oral, 5 times a week for 3 weeks, end point 4 weeks, low = active.
Source text: as §1, §2, §3, §4

The nature of series [7]: Side effects in the xenograft studies. The note with it: tumor-bearing nude mice, 30 mg/kg oral.
Source text: as §1, §2, §3

One may read the Cmax as the peak of the concentration-time curve. One may read the Tmax as the time at which the peak concentration occurs.

Consider `C=C(C)C1CCC2(C(=O)O)CCC3(C)C(CCC4C5(C)CCC(=O)C(C)(CO)C5CCC43C)C12` (stereo not drawn) [zhangnan-5], for which, in series [1], the Cmax was determined as 65 µM. The Tmax in series [1] is 1.42 h. For the same molecule, the half-life in series [1] (read-out: T½ (converted)) is 11.5 h. Further, the entries for the “TGI (T/C×100 of relative tumor volume)” value in series [2], in series [3] and in series [5] were 6.9%, 0% and 10.8%, respectively. Further, the “T/C of relative tumor volume (treated/control × 100)” value in series [4] was determined as 12.5%. Moreover, the “T/C of relative tumor volume (%)” value in series [6] worked out at 5%. In addition, in series [7], the “side effects, including changes in weight” value is given as “no obvious side effects have been found”.

The values above are taken from patent US20120302530A1, “23-HYDROXY-BETULINIC ACID DERIVATIVES, PREPARATION METHODS AND USES THEREOF” (priority 2009, published 2012).
